The text below walks through data of article PMC12735921, “Evaluation of Antiproliferative Activity and Molecular Modeling Studies of Some Novel Benzimidazolone-Bridged Hybrid Compounds” (Pharmaceuticals, 2025).

“And” between values parts separate entries of the source, which are not always exact repeats. Equal entries are not always repeated.

Type in all cases: cell-based, human
Experiment [1] concerns HeLa cells. In words: Intracellular GSH/GSSG ratio, HeLa. The conditions noted are these: IC50 concentration of compound, 48 h, H2O2 positive control, mean ± SD, n = 3. As for the experimental part: (§1) Intracellular reduced (GSH) and oxidized (GSSG) glutathione levels were measured using the GSH/GSSG Ratio Detection Assay Kit (Cayman Chemical, Ann Arbor, MI, USA, Cat. No: 703002) according to the manufacturer’s protocol. […] After treatment, cells were washed with cold PBS and lysed with MES buffer provided in the kit.
(§2) To prevent oxidation of GSH to GSSG during processing, samples were deproteinized using the supplied metaphosphoric acid solution and neutralized accordingly. Total glutathione and GSSG levels were measured separately by adding the appropriate buffers and reagents to the wells of a 96-well plate, followed by the addition of DTNB recycling reagent and glutathione reductase. Absorbance was read at 405 nm using a microplate reader (BMG Labtech, Germany). The amount of GSH was calculated by subtracting 2 × GSSG from the total glutathione, and the GSH/GSSG ratio was used to assess intracellular redox status.

Experiment [2] relates to HeLa cells. The experiment can be described thus: LDH leakage assay, HeLa. The following applies: IC50 concentration of compound, 48 h, H2O2 positive control, mean ± SD, n = 3. As for the experimental part:
(§3) One hundred microliters of culture medium was transferred to a new 96-well plate. One hundred microliters of LDH reaction solution was added to each well, and absorbance was measured at 490 nm using an ELISA plate reader (BMG Labtech, Ortenberg, Germany) after 30 min.
(In general: Release of lactate dehydrogenase indicates damage to the cell membrane.)

A further experiment relates to MCF-7 cells. The experiment can be described thus: MTT cell viability assay, MCF-7. The conditions noted are these: for IC50: Homo sapiens, MCF7, MTT, 48 h, mean ± SD, n = 3; for MCF-7 Selectivity Index (SI): SI = IC50 (HEK 293)/IC50 (MCF-7). Here is the method:
(§4) Cell viability assay was performed on the human lung cancer (A549) (ATCC CCL-185), human breast cancer (MCF-7) (ATCC-HTB-22), cervical cancer (HeLa) (ATCC-CCL-2), and human embryonic kidney 293 (HEK293) (ATCC-CRL-1573) cell lines, which were purchased from Deutsche Sammlung von Mikroorganismen und Zellkulturen (DSMZ, Braunschweig, Germany). The cells were maintained in Dulbecco’s modified Eagle’s medium (DMEM), supplemented with 10% fetal bovine serum (FBS), 2 mM L-glutamine, 100 U/mL penicillin, and 100 mg/L streptomycin (Biochrom AG, Berlin, Germany) at 37 °C in a humidified atmosphere of 5% CO2.
(§5) The cytotoxic effect was determined by the MTT (3-(4,5-dimethyl-2-thiazolyl)-2,5-diphenyl-2H-tetrazolium bromide) cell viability assay. Cells were seeded at an initial concentration of 1 × 10^5 cells/mL in 96-well microplates. Cells were then treated with different concentrations (0.5, 5, 10, 25, 50, 100 and 200 µM) of the novel synthesized compounds for 48 h. After the incubation period, the formed formazan crystals were dissolved in dimethyl sulfoxide (DMSO), and the optical density (OD) of the compounds was measured at 570 nm using a spectrophotometer (BMG Labtech, Ortenberg, Germany). Cytotoxicity was expressed as an increase in the mean percentage of cytotoxicity relative to the unexposed control ± standard deviation (SD). […] Control values were set at 0% cytotoxicity. IC50 was calculated by fitting the data to a sigmoidal curve using a four-parameter logistic model and was presented as an average of three independent measurements. […] Doxorubicin was used as a positive control. Each sample was tested in triplicate.
(§6) To evaluate the selectivity of the tested compound(s) toward cancer cells over normal cells, the Selectivity Index (SI) was calculated using the following formula:SI = IC50 (normal cells)/IC50 (cancer cells)
(§7) An SI value greater than 2 was considered to indicate selective cytotoxicity, while values below 2 were interpreted as non-selective. Higher SI values reflect greater therapeutic potential due to reduced toxicity toward normal cells.
A general note: Tetrazolium assays rely on reduction of a dye to a coloured formazan, in cell work by metabolically active cells.

For a further experiment, the system named is HEK 293 cells. In words: MTT cell viability assay, non-cancerous HEK 293. The conditions noted are these: Homo sapiens, HEK293, 48 h, mean ± SD, n = 3. As for the experimental part:
as §4
The cytotoxic effect was determined by the MTT (3-(4,5-dimethyl-2-thiazolyl)-2,5-diphenyl-2H-tetrazolium bromide) cell viability assay. Cells were seeded at an initial concentration of 1 × 10^5 cells/mL in 96-well microplates. Cells were then treated with different concentrations (0.5, 5, 10, 25, 50, 100 and 200 µM) of the novel synthesized compounds for 48 h. After the incubation period, the formed formazan crystals were dissolved in dimethyl sulfoxide (DMSO), and the optical density (OD) of the compounds was measured at 570 nm using a spectrophotometer (BMG Labtech, Ortenberg, Germany). Cytotoxicity was expressed as an increase in the mean percentage of cytotoxicity relative to the unexposed control ± standard deviation (SD). […] Control values were set at 0% cytotoxicity. IC50 was calculated by fitting the data to a sigmoidal curve using a four-parameter logistic model and was presented as an average of three independent measurements. […] Each sample was tested in triplicate.

Experiment [3] relates to A549 cells. The experiment can be described thus: MTT cell viability assay, A549. The conditions noted are these: for IC50: Homo sapiens, A549, MTT, 48 h, mean ± SD, n = 3; for A549 Selectivity Index (SI): SI = IC50 (HEK 293)/IC50 (A549). As for the experimental part:
as §4, §5, §6, §7

Experiment [4] has as its system HeLa cells. The experiment can be described thus: Cell cycle analysis (PI staining, flow cytometry), HeLa. The conditions noted are these: IC50 concentration, 48 h, mean ± SEM, n = 3. As for the experimental part:
(§8) Cell cycle distribution was assessed by propidium iodide (PI) staining and flow cytometry. HeLa, MCF-7, and A549 cells were seeded in 6-well plates at a density of 1 × 10^5 cells per well and allowed to attach overnight. […] Following exposure, both adherent and floating cells were collected, washed twice with cold phosphate-buffered saline (PBS, pH 7.4), and fixed overnight in 70% cold ethanol at 4 °C. After fixation, the cells were centrifuged and resuspended in 500 µL of PI/RNase staining solution containing 50 µg/mL PI and 100 µg/mL RNase A (Sigma-Aldrich®, St. Louis, MO, USA), followed by incubation in the dark for 30 min at 37 °C. The stained samples were analyzed using a Muse™ Cell Analyzer (Merck, Millipore, Germany) equipped with a 488 nm excitation laser and a 617 nm emission filter. A minimum of 10,000 events per sample were acquired after exclusion of debris and doublets via FSC-A vs. FSC-H gating. The DNA content histograms were generated automatically, and cell populations were expressed as percentages of G0/G1, S, and G2/M phases using the Muse™ Cell Cycle Analysis Software 1.5.0.0. All assays were conducted in triplicate biological repeats (n = 3), and results were reported as mean ± SEM.

The test system of experiment [5] is HeLa cells. The experiment can be described thus: Total oxidative status (TOS), HeLa. The conditions noted are these: IC50 concentration of compound, 48 h, H2O2 250 µM positive control, mean ± SD, n = 3. As for the experimental part:
(§9) TOS were evaluated using a commercially available kit (Rel Assay Diagnostics®, Gaziantep, Turkey) according to the manufacturer’s instructions. […] The TOS assay quantifies oxidizing agents based on their ability to convert an iron (II) ion chelator complex to iron (III) ions. The results were calibrated against hydrogen peroxide (H2O2, 250 µM) as a positive control for 48 h and expressed as µmol H2O2 equivalents per liter. The analysis was performed in three independent biological replicates (n = 3).

Experiment [6] deals with HeLa cells. In words: MTT cell viability assay, HeLa. The following applies: for IC50: Homo sapiens, HeLa, MTT, 48 h, mean ± SD, n = 3; for HeLa Selectivity Index (SI): SI = IC50 (HEK 293)/IC50 (HeLa). As for the experimental part: as §4, §5, §6, §7
For experiment [7], the system named is A549 cells. In words: Total oxidative status (TOS), A549. The following applies: A549, IC50 concentration of compound, 48 h; H2O2 250 µM positive control; mean ± SD, n = 3. As for the experimental part: as §9
In experiment [8] the test system is A549 cells. In words: Intracellular GSH/GSSG ratio, A549. The conditions noted are these: A549, IC50 concentration of compound, 48 h; H2O2 positive control; mean ± SD, n = 3. Here is the method: as §1, §2
For experiment [9], the system named is A549 cells. In words: LDH leakage assay, A549. The conditions noted are these: A549, IC50 concentration of compound, 48 h; H2O2 positive control; mean ± SD, n = 3. As for the experimental part: as §3
In experiment [10] the test system is A549 cells. In words: Cell cycle analysis (PI staining, flow cytometry), A549. The conditions noted are these: A549, IC50 concentration, 48 h, mean ± SEM, n = 3. As for the experimental part: as §8
(In flow cytometry, cells or beads pass a laser one at a time.)

For the compound `O=C(Cn1c(=O)n(CC(=O)N/N=C/c2cccs2)c2cc(Cl)c(Cl)cc21)N/N=C/c1cccs1` [Compound 5], in the experiment on HeLa cells [1], the GSH/GSSG was found to be 11.8 ± 1.3. In addition, in the experiment on HeLa cells [2], the LDH was 24.8 ± 2.1 µU/mL and 24.8 ± 2.1 ^a,b µU/mL. In the experiment on MCF-7 cells, half-maximal inhibition (IC50) was put at 50.2 ± 2.9 µM and the “MCF-7 Selectivity Index (SI)” value came out at 1.18. In the experiment with HEK 293 cells, this compound came in with an IC50 of 59.4 ± 3.43 µM. Also, in the experiment with A549 cells [3], the IC50 was determined as 48.3 ± 2.79 µM and the “A549 Selectivity Index (SI)” value is recorded as 1.22. In the experiment on HeLa cells [4], the “cells in G0/G1 phase” value is listed as 44.5 ± 2.2%, the “cells in G2/M phase” value turned out to be 30.0 ± 1.5% and the “cells in S phase” value came out at 25.5 ± 1.6%. Also, the TOS with HeLa cells [5] was 6.9 ± 0.5 µmol H2O2 eq/L and 6.9 ± 0.5 ^a,b µmol H2O2 eq/L. Moreover, in the experiment with HeLa cells [6], the IC50 came out at 26.1 ± 1.5 µM and the “HeLa Selectivity Index (SI)” value worked out at 2.27.
Turning to `O=C(Cn1c(=O)n(CC(=O)NNC(=O)c2cc3cc(Cl)cc(Cl)c3oc2=O)c2cc(Cl)c(Cl)cc21)NNC(=O)c1cc2cc(Cl)cc(Cl)c2oc1=O` [Compound 12d, N′,N′′′ -(2,2′-(5,6-dichloro-2-oxo-1H-benzo[d]imidazole-1,3(2H)-diyl)bis(acetyl))bis(6,8-Dichloro-2-oxo-2H-chromene-3-carbohydrazide)], the GSH/GSSG was 9.7 ± 1.0 with HeLa cells [1]; 10.1 ± 0.9 nmol/mg Protein and 10.1 ± 0.9 ^a,b nmol/mg Protein in the experiment on A549 cells [8]. The LDH is 29.7 ± 2.4 µU/mL and 29.7 ± 2.4 ^a,b µU/mL in the experiment on HeLa cells [2]; 27.3 ± 2.2 µU/mL and 27.3 ± 2.2 ^a,b µU/mL in the experiment on A549 cells [9]. The TOS with A549 cells [7] was 7.9 ± 0.6 µmol H2O2 eq/L and 7.9 ± 0.6 ^a,b µmol H2O2 eq/L; in the experiment on HeLa cells [5], 8.4 ± 0.6 µmol H2O2 eq/L and 8.4 ± 0.6 ^a,b µmol H2O2 eq/L. Moreover, the IC50 came to 21.9 ± 1.26 µM in the experiment on MCF-7 cells, 31.2 ± 1.8 µM with HEK 293 cells, 15.5 ± 0.89 µM with A549 cells [3] and 12.8 ± 0.73 µM with HeLa cells [6]. Besides, the “MCF-7 Selectivity Index (SI)” value with MCF-7 cells was 1.42. Also, in the experiment on A549 cells [3], the “A549 Selectivity Index (SI)” value is 2.01. The “cells in G0/G1 phase” value in the experiment with HeLa cells [4] is given as 40.1 ± 2.0%; in the experiment with A549 cells [10], 62.1 ± 2.1%. Moreover, the “cells in G2/M phase” value came to 36.4 ± 1.8% in the experiment with HeLa cells [4] and 19.0 ± 1.5% in the experiment with A549 cells [10]. Moreover, the “HeLa Selectivity Index (SI)” value in the experiment on HeLa cells [6] was 2.4. In the experiment on A549 cells [10], the “cells in S phase” value is reported as 18.9 ± 1.4%.

The term IC50 denotes the concentration at which inhibition is half-maximal.
